Data from patent US9416181B2, “Compositions for cell culture and methods of using the same” (AbbVie Inc., priority 2013, dated 2016).

Legend:
Type in all cases: cell-based, Chinese Hamster
[1] = system: Cell Line 2 (CHO) expressing Antibody 2; assay: Cell culture performance, Cell Line 2 shake flask culture; details: shaker
Protocol: (§1) Four different recombinant Chinese Hamster Ovary (CHO) cell lines expressing four different recombinant glycoproteins were evaluated in either shaker flask culture, or 3 L laboratory scale bioreactors. Cell Line 1 was genetically engineered to express Antibody 1, Cell Line 2 was genetically engineered to express Antibody 2, Cell Line 3 was genetically engineered to express dual variable domain immunoglobulin 1 (DVD1) and Cell Line 4 was genetically engineered to express dual variable domain immunoglobulin 2 (DVD2).
DVD1 and DVD2 were immunoglobulins with two variable domains as documented previously. See Wu et al. (2007). Antibody 1 and Antibody 2 were both IgG1 glycoproteins. All four cell lines were of CHO DUX-B11 origin based on a dhfr (dihydrofolate reductase) expression system and cultured in chemically defined basal medias (CDBM), and fed periodically with chemically-defined feed media (CDFM). All media utilized throughout all of the experiments were chemically-defined, free of animal-component, and protein-free. […]
Viable cell density (VCD) and cell viability values were measured through trypan blue exclusion via Cedex automated cell counters (Roche Applied Science, Indianapolis, Ind.), glucose and lactate values were measured with a ABL-805 (Radiometer Medical, Denmark) blood gas analyzer. […] Osmolality was measured as needed on a Multi-Osmette 2430 osmometer (Precision Systems, Natick, Mass.).
(§2) Protein A Affinity Chromatography-Antibody titers were measured from crude cell culture harvests on a Poros ATM (Life Technologies, Carlsbad, Calif.) affinity column using an HPLC system operating with a low pH, step elution gradient with detection at 280 nm. […]
(§3) To further evaluate the impact of EGCG on acidic region variants, Antibody 2 and dual variable domain immunoglobulin 1 (DVD1) were examined. Antibody 2 was evaluated in a set of shaker and lab-scale bioreactor experiments with two feed amounts (100% and 50%) as unsupplemented control conditions. […]

[2] = system: Cell Line 2 (CHO) expressing Antibody 2; assay: Acidic species variants (WCX-10) of Antibody 2, Cell Line 2 shake flask culture; details: 0.05 and 0.1 g/L; shaker
Protocol: as §1
Charge Heterogeneity via Weak Cation Exchange Chromatography-Samples were analyzed using an HPLC system equipped with a ProPac WCX-10 analytical column (Thermo Scientific, Sunnyvale, Calif.). Approximately 100 μg of sample was loaded in 6% Buffer B (10 mM sodium phosphate, 500 mM NaCl, pH 5.5) and 94% Buffer A (10 mM sodium phosphate, pH 7.5). The column was run at a flow rate of 1.0 mL/min. […] The protein peaks were measured using UV absorbance at 280 nm as the peaks eluted from the column. […]
as §3

[3] = system: Cell Line 2 (CHO) expressing Antibody 2; assay: Cell culture performance, Cell Line 2 lab-scale bioreactor culture; details: 0.1 g/L in 100% feed and equivalent in 50% feed
Protocol: as §1
Viable cell density (VCD) and cell viability values were measured through trypan blue exclusion via Cedex automated cell counters (Roche Applied Science, Indianapolis, Ind.), glucose and lactate values were measured with a ABL-805 (Radiometer Medical, Denmark) blood gas analyzer. Offline pH, dissolved oxygen (DO), and pCO2 (Dissolved carbon dioxide) measurements were performed as needed with an ABL-805 (Radiometer Medical, Denmark) blood gas analyzer. Osmolality was measured as needed on a Multi-Osmette 2430 osmometer (Precision Systems, Natick, Mass.).
as §2

SMILES: O=C(O[C@@H]1Cc2c(O)cc(O)cc2O[C@@H]1c1cc(O)c(O)c(O)c1)c1cc(O)c(O)c(O)c1 [EGCG, epigallocatechin gallate]
- impact on cell culture performance (cell growth, viability, titer) ([1]; 0.05 and 0.1 g/L in feed): no negative impact on cell culture performance
- fold of the average titer of the unsupplemented control conditions ([1]; 0.1 g/L in 100% feed): 1.22 fold
- fold of the average titer of the unsupplemented control conditions ([1]; equivalent of 0.1 g/L in 50% feed): 1.11 fold
- relative reduction of total acidic species content vs unsupplemented control [2]: 21%-45%
- impact on cell culture performance (cell growth, viability, titer) [3]: negligible impact on cell culture performance
